Data published in patent publication US11401278B2, “Macrocyclic indole derivatives” (The Broad Institute, Inc., priority 2017, dated 2022).
Where a name gives a salt, the structure may show the parent alone. Read-outs that look alike come from different tables or passages of the source.

Assays:
[1] = target: MCL-1 (Homo sapiens (Human), UniProt Q07820, K194A/K197A/R201A); experiment: Protein-protein interaction assay MCL-1/Noxa BH3 peptide (MCL-1 assay, TR-FRET); type: binding; conditions: MBP-MCL-1 / Noxa BH3 peptide, median
Chain of MCL-1 (Q07820 whole entry K194A/K197A/R201A, looked up, the tested form may be a part): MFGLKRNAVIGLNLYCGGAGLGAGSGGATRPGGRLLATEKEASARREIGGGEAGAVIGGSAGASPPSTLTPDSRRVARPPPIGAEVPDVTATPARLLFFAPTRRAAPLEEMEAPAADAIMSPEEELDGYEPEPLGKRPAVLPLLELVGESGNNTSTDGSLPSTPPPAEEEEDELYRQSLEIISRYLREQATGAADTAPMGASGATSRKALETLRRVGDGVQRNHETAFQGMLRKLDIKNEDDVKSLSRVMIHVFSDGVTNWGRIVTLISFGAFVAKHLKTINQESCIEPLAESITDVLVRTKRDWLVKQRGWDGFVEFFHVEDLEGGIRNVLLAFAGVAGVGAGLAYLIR
How it was run: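 MBP-fused MCL-1 (aa 173-329, 1 nM) was pre-incubated with compound for 10 min at 22° C, then biotinylated Noxa BH3 peptide (1 nM) was added with anti-MBP-Eu cryptate and streptavidin-XL665. Incubation was 1 h at 22° C, then overnight at 4° C, in Tris pH 7 buffer. The 665/620 nm ratio over 11 concentrations (0.1 nM-20 μM) gave IC50 by 4-parameter fit.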

[2] = test system: SUDHL10; experiment: Induction of caspase-3/7 activity (Assay 4), SUDHL10; type: cell-based; conditions: caspase-3/7 induction, median
How it was run: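 Caspase-3/7 activity measured by Caspase-Glo 3/7 luminescence in DLBCL cells after 3 h compound treatment at 37 °C. Medium-only background subtracted. EC50 fitted with C0 fixed at 1 and top set to the reference compound's plateau/max induction.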

[3] = test system: SUDHL5; experiment: Induction of cytotoxicity (Assay 6), SUDHL5; conditions: read-out: Cytotox SUDHL5 [M] (median) IC50, CellTiter-Glo, 5 hours, SUDHL5
Protocol: Assay 6 Induction of Cytotoxicity Upon Treatment of Cells with Selected Compounds
Therefore, cytotoxicity assays were run in parallel in SUDHL5 and SUDHL10 cells.
The different cell lines were plated in culture medium (RPMI 1640 [GIBCO #22400-089] supplemented with 10% Fetal Bovine Serum) at a density of 3,300 cells in 30 μl/well in a sterile, solid black, flat bottom, polystyrene, TC-treated 384-well microplate (Corning #3571) using Multidrop Combi Reagent Dispenser. As a control, medium without cells was also added to the plate. Cells were incubated in a humidified incubator at 37° C. overnight. On the next day, the cells were treated with compounds (stock solution, 10 mM in DMSO) using the HP D300 Digital Dispenser in a concentration range of 3.3×10e-5 M (33 μM) to 5×10e-9 M (5 nM) in a single-dot curve with at least 16 dilutions and a DMSO concentration of 0.33%. Rim wells were excluded. The cells were incubated for 5 hours in a humidified incubator at 37° C. After this incubation, 30 μl of CellTiter-Glo® Luminescent Cell Viability reagent (Promega, G7573) was added to each well using the Multidrop Combi Reagent Dispenser, followed by 15 minutes incubation on a shaker at room temperature. Finally, luminescence was read at 0.1 ms, with a gain of 3000 using the PHERAstar FS microplate reader (BMG Labtech).

[4] = test system: SUDHL10; experiment: Induction of cytotoxicity (Assay 6), SUDHL10; conditions: read-out: Cytotox SUDHL10 [M] (median) IC50, CellTiter-Glo, 5 hours, SUDHL10

## Cc1c2c(nn1C)C(CCN1CCOCC1)N(C)S(=O)(=O)CCCn1c(C(=O)O)c(CCCOc3cccc4ccccc34)c3cccc-2c31 (single isomer, unassigned; enantiomer 1) [Example 45, 2,3,14-trimethyl-15-[2-(morpholin-4-yl)ethyl]-7-{3-[(naphthalen-1-yl)oxy]propyl}-13,13-dioxo-10,11,12,13,14,15-hexahydro-2H-13lambda^6-pyrazolo[3′,4′:4,5][1,2,8]thiadiazacycloundecino[6,7,8-hi]indole-8-carboxylic acid N-ethylethanamine Salt (Enantiomer 1)]
[1]
  IC50: 0.033 µM
[2]; 3 hours
  EC50: 23 µM
[3]
  IC50: 2e-05 M
[4]
  IC50: 1.7e-05 M

## Cc1c2c(nn1C)C(CCN1CCOCC1)N(C)S(=O)(=O)CCCn1c(C(=O)O)c(CCCOc3cccc4cc(F)ccc34)c3ccc(Cl)c-2c31 (racemic) [Example 65, (rac)-4-chloro-7-{3-[(6-fluoronaphthalen-1-yl)oxy]propyl}-2,3,14-trimethyl-15-(rac)-[2-(morpholin-4-yl)ethyl]-13,13-dioxo-10,11,12,13,14,15-hexahydro-2H-13lambda^6-pyrazolo[3′,4′:4,5][1,2,8]thiadiazacycloundecino[6,7,8-hi]indole-8-carboxylic acid (Mixture of Stereoisomers)]
[1]
  IC50: 0.00094 µM
[2]; 3 hours
  EC50: 0.06 µM
[3]
  IC50: 5.8e-08 M
[4]
  IC50: 1e-07 M

## CCNCC.CCc1c2c(nn1C)C(CCN1CCOCC1)N(C)S(=O)(=O)CCCn1c(C(=O)O)c(CCCOc3cccc4cc(F)ccc34)c3ccc(Cl)c-2c31 (single isomer, unassigned; enantiomer 2) [Example 76, 4-chloro-3-ethyl-7-{3-[(6-fluoronaphthalen-1-yl)oxy]propyl}-2,14-dimethyl-15-[2-(morpholin-4-yl)ethyl]-13,13-dioxo-10,11,12,13,14,15-hexahydro-2H-13lambda^6-pyrazolo[3′,4′:4,5][1,2,8]thiadiazacycloundecino[6,7,8-hi]indole-8-carboxylic acid-N-ethylethanamine Salt (Enantiomer 2)]
[1]
  IC50: 0.00059 µM
[2]; 3 hours
  EC50: 0.0055 µM
[3]
  IC50: 6.7e-09 M
[4]
  IC50: 8.2e-09 M

## CCc1c2c(nn1C)CN(C)S(=O)(=O)CCCn1c(C(=O)O)c(CCCOc3cccc4cc(F)ccc34)c3ccc(F)c-2c31 (racemic) [Example 7, (rac)-12-Ethyl-13-fluoro-1-(3-((6-fluoronaphthalen-1-yl)oxy)propyl)-8,11-dimethyl-5,6,9,11-tetrahydro-4H,8H-pyrazolo[3′,4′:4,5][1]thia[2,8]diazacycloundecino[6,7,8-hi]indole-2-carboxylic acid 7,7-dioxide]
[1]
  IC50: 0.0013 µM
[2]; Homo sapiens, SU-DHL10, 3 h
  EC50: 0.74 µM
[3]; Homo sapiens, SU-DHL-5, 5 h
  IC50: 4.7e-07 M
[4]; Homo sapiens, SU-DHL10, 5 h
  IC50: 9.1e-07 M

## CCc1c2c(nn1C)C(CCC1CCOCC1)N(C)S(=O)(=O)CCCn1c(C(=O)O)c(CCCOc3cccc4cc(F)ccc34)c3ccc(Cl)c-2c31 (single isomer, unassigned; enantiomer 2) [Example 62, (−)-4-chloro-3-ethyl-7-{3-[(6-fluoronaphthalen-1-yl)oxy]propyl}-2,14-dimethyl-15-[2-(oxan-4-yl)ethyl]-13,13-dioxo-10,11,12,13,14,15-hexahydro-2H-13lambda^6-pyrazolo[3′,4′:4,5][1,2,8]thiadiazacycloundecino[6,7,8-hi]indole-8-carboxylic acid (Enantiomer 2)]
[1]
  IC50: 0.11 µM
[2]; 3 hours
  EC50: 6.8 µM
[3]
  IC50: 5.3e-06 M
[4]
  IC50: 9.7e-06 M

## CCc1c2c(nn1C)C(CCC1CCOCC1)N(C)S(=O)(=O)CCCn1c(C(=O)O)c(CCCOc3cccc4cc(F)ccc34)c3ccc(Cl)c-2c31 (racemic) [Example 60, (rac)-4-chloro-3-ethyl-7-{3-[(6-fluoro-1-naphthyl)oxy]propyl}-2,14-dimethyl-15-[2-(tetrahydro-2H-pyran-4-yl)ethyl]-11,12,14,15-tetrahydro-2H,10H-pyrazolo[3′,4′:4,5][1,2,8]thiadiazacycloundecino[6,7,8-hi]indole-8-carboxylic acid 13,13-dioxide (Racemate 1)]
[1]
  IC50: 0.0024 µM
[2]; 3 hours
  EC50: 0.032 µM
[3]
  IC50: 2.8e-08 M
[4]
  IC50: 3.9e-08 M

## CCc1c2c(nn1C)CN(C)S(=O)(=O)CCCn1c(C(=O)O)c(CCCOc3cccc4cc(F)ccc34)c3ccc(Cl)c-2c31 (single isomer, unassigned; enantiomer 2) [Example 37, (−)-4-chloro-3-ethyl-7-{3-[(6-fluoronaphthalen-1-yl)oxy]propyl}-2,14-dimethyl-13,13-dioxo-10,11,12,13,14,15-hexahydro-2H-13lambda^6-pyrazolo[3′,4′:4,5][1,2,8]thiadiazacycloundecino-[6,7,8-hi]indole-8-carboxylic acid (Enantiomer 2)]
[1]
  IC50: 0.011 µM
[2]; 3 hours
  EC50: 12 µM
[3]
  IC50: 5.7e-06 M
[4]
  IC50: 9e-06 M

## CCc1c2c(nn1C)CN(C)S(=O)(=O)CCCn1c(C(=O)O)c(CCCOc3cccc4cc(F)ccc34)c3ccc(F)c-2c31 (single isomer, unassigned; enantiomer 2) [Example 9, (−)-3-Ethyl-4-fluoro-7-{3-[(6-fluoronaphthalen-1-yl)oxy]propyl}-2,14-dimethyl-13,13-dioxo-10,11,12,13,14,15-hexahydro-2H-13λ^6-pyrazolo[3′,4′:4,5][1,2,8]thiadiazacycloundecino-[6,7,8-hi]indole-8-carboxylic acid (Enantiomer 2)]
[1]
  IC50: 0.034 µM
[2]; 3 hours
  EC50: > 33 µM
[3]
  IC50: 1.7e-05 M
[4]
  IC50: > 3.3e-05 M

## Cc1c2c(nn1C)C(CCN1CCOCC1)N(C)S(=O)(=O)CCCn1c(C(=O)O)c(CCCOc3cccc4ccccc34)c3cccc-2c31 (racemic) [Example 44, (rac)-2,3,14-trimethyl-15-[2-(rac)-(morpholin-4-yl)ethyl]-7-[3-(1-naphthyloxy)propyl]-11,12,14,15-tetrahydro-2H,10H-pyrazolo[3′,4′:4,5][1,2,8]thiadiazacycloundecino[6,7,8-hi]indole-8-carboxylic acid 13,13-dioxide (Mixture of Stereoisomers)]
[1]
  IC50: 0.003 µM
[2]; Homo sapiens, SU-DHL10, 3 h
  EC50: 1.7 µM
[3]; Homo sapiens, SU-DHL-5, 5 h
  IC50: 1.3e-06 M
[4]; Homo sapiens, SU-DHL10, 5 h
  IC50: 2.6e-06 M

## CCc1c2c(nn1C)CNS(=O)(=O)CCCn1c(C(=O)O)c(CCCOc3cccc4ccccc34)c3cccc-2c31 (racemic) [Example 17, (rac)-12-Ethyl-11-methyl-1-(3-(naphthalen-1-yloxy)propyl)-4,5,6,8,9,11-hexahydropyrazolo[3′,4′:4,5][1,2,8]thiadiazacycloundecino[6,7,8-hi]indole-2-carboxylic acid 7,7-dioxide]
[1]
  IC50: 0.0081 µM
[2]; Homo sapiens, SU-DHL10, 3 h
  EC50: 21 µM
[3]; Homo sapiens, SU-DHL-5, 5 h
  IC50: 9.3e-06 M
[4]; Homo sapiens, SU-DHL10, 5 h
  IC50: 1.6e-05 M

## Cc1c2c(nn1C)C(CCN1CCOCC1)N(C)S(=O)(=O)CCCn1c(C(=O)O)c(CCCOc3cccc4cc(F)ccc34)c3ccc(Cl)c-2c31 (racemic) [Example 48, (rac)-4-chloro-7-{3-[(6-fluoro-1-naphthyl)oxy]propyl}-2,3,14-trimethyl-15-(rac)-[2-(morpholin-4-yl)ethyl]-11,12,14,15-tetrahydro-2H,10H-pyrazolo[3′,4′:4,5][1,2,8]thiadiazacycloundecino[6,7,8-hi]indole-8-carboxylic acid 13,13-dioxide (Mixture of Stereoisomers)]
[1]
  IC50: 0.00093 µM
[2]; 3 hours
  EC50: 0.0097 µM
[3]
  IC50: 1.4e-08 M
[4]
  IC50: 1.2e-08 M

## CCc1c2c(nn1C)CN(C)S(=O)(=O)CCCn1c(C(=O)O)c(CCCOc3cccc4c3CCC4)c3ccc(F)c-2c31 (racemic) [Example 32, (rac)-1-(3-((2,3-Dihydro-1H-inden-4-yl)oxy)propyl)-12-ethyl-13-fluoro-8,11-dimethyl-5,6,9,11-tetrahydro-4H,8H-pyrazolo[3′,4′:4,5][1]thia[2,8]diazacycloundecino[6,7,8-hi]indole-2-carboxylic acid 7,7-dioxide]
[1]
  IC50: 0.0015 µM
[2]; Homo sapiens, SU-DHL10, 3 h
  EC50: 1.1 µM
[3]; Homo sapiens, SU-DHL-5, 5 h
  IC50: 7.4e-07 M
[4]; Homo sapiens, SU-DHL10, 5 h
  IC50: 1.2e-06 M

## Cc1c2c(nn1C)CNS(=O)(=O)CCCn1c(C(=O)O)c(CCCOc3cccc4cc(F)ccc34)c3ccc(Cl)c-2c31 (racemic) [Example 50, (rac)-4-chloro-7-{3-[(6-fluoro-1-naphthyl)oxy]propyl}-2,3-dimethyl-11,12,14,15-tetrahydro-2H,10H-pyrazolo[3′,4′:4,5][1,2,8]thiadiazacycloundecino[6,7,8-hi]indole-8-carboxylic acid 13,13-dioxide]
[1]
  IC50: 0.00074 µM
[2]; Homo sapiens, SU-DHL10, 3 h
  EC50: 2.8 µM
[3]; Homo sapiens, SU-DHL-5, 5 h
  IC50: 1.4e-06 M
[4]; Homo sapiens, SU-DHL10, 5 h
  IC50: 3.8e-06 M

## CCc1c2c(nn1C)CN(C)S(=O)(=O)CCCn1c(C(=O)O)c(CCCOc3ccc(F)c4ccccc34)c3ccc(Cl)c-2c31 [Example 24, (rac)-13-Chloro-12-ethyl-1-(34(4-fluoronaphthalen-1-yl)oxy)propyl)-8,11-dimethyl-4,5,6,8,9,11-hexahydropyrazolo[3′,4′:4,5][1,2,8]thiadiazacycloundecino[6,7,8-hi]indole-2-carboxylic acid 7,7-dioxide]
[1]
  IC50: 0.0034 µM
[2]; Homo sapiens, SU-DHL10, 3 h
  EC50: 2.3 µM
[3]; Homo sapiens, SU-DHL-5, 5 h
  IC50: 1.3e-06 M
[4]; Homo sapiens, SU-DHL10, 5 h
  IC50: 2.4e-06 M
